Common to all, as to format: functional, cell-based
The subject of test [1] is PC-3. Kind of test: Antiproliferative activity against human PC3 cells after 72 hrs by MTT assay. To be noted: PC-3, 72 h. For orientation: Tetrazolium dyes change colour on reduction, which living cells bring about.
Test [2] relates to MCF7. Put plainly: Antiproliferative activity against human MCF7 cells after 72 hrs by MTT assay. To be noted: MCF7, 72 h.
Test [3] relates to MGC-803. Kind of test: Antiproliferative activity against human MGC803 cells after 72 hrs by MTT assay. To be noted: MGC-803, 72 h.
Test [4] has as its system ECa-109 cell line. Put plainly: Antiproliferative activity against human ECA109 cells after 72 hrs by MTT assay. To be noted: ECa-109, 72 h.
The test system of test [5] is SMMC-7721. Kind of test: Antiproliferative activity against human SMMC7721 cells after 72 hrs by MTT assay. To be noted: SMMC-7721, 72 h.
Test [6] deals with A549. Kind of test: Antiproliferative activity against human A549 cells after 72 hrs by MTT assay. Particulars: A549, 72 h.

IC50 data for 20 compounds are collected here from ChEMBL document CHEMBL4265905, “Synthesis and biological evaluation of novel Jiyuan Oridonin A-1,2,3-triazole-azole derivatives as antiproliferative agents” (Eur J Med Chem, 2018).

The structures appear in SMILES notation.

What is called IC50 is the midpoint of a concentration-inhibition curve. On to `C=C1C(=O)[C@]23[C@H](O)[C@H]1C[C@H](O)[C@H]2[C@]12CCCC(C)(C)[C@H]1C[C@H]3O[C@@H]2OCCCn1cc(CN2C(=O)S/C(=C\c3cc(OC)c(OC)c(OC)c3)C2=O)nn1`, for which the IC50 was determined as 13.9 µM in test [1], 4.1 µM in test [2], 10.1 µM in test [3] and 11.8 µM in test [4].

In the case of `C=C1C(=O)[C@]23[C@H](O)[C@H]1C[C@H](O)[C@H]2[C@]12CCCC(C)(C)[C@H]1C[C@H]3O[C@@H]2OCCCn1cc(CSc2nc3ccccc3s2)nn1`, the IC50 was found to be 1.8 µM in test [5]; 1.6 µM in test [1]; 4.2 µM in test [2]; 2.1 µM in test [3]; 5.8 µM in test [6]; 1.4 µM in test [4].

`C=C1C(=O)[C@]23[C@H](O)[C@H]1C[C@H](O)[C@H]2[C@]12CCCC(C)(C)[C@H]1C[C@H]3O[C@@H]2OCCCn1cc(CN2C(=O)S/C(=C/CCCCC)C2=O)nn1`: the IC50 in test [5] was found to be 5.3 µM; in test [1], 5.3 µM; in test [2], 1.9 µM; in test [3] it was 1.2 µM; in test [6], 4.8 µM; in test [4] it was 4.2 µM.

Take `C=C1C(=O)[C@]23[C@H](O)[C@H]1C[C@H](O)[C@H]2[C@]12CCCC(C)(C)[C@H]1C[C@H]3O[C@H]2O`: the IC50 came out at 14.6 µM in test [5]; 24.3 µM in test [1]; 21.1 µM in test [2]; 27.1 µM in test [3]; 16.4 µM in test [6]; 25.2 µM in test [4].

`C=C1C(=O)[C@]23[C@H](O)[C@H]1C[C@H](O)[C@H]2[C@]12CCCC(C)(C)[C@H]1C[C@H]3O[C@@H]2OCCCn1cc(CSC2=NCCS2)nn1`: the IC50 worked out at 3.5 µM in test [5]; 1.4 µM in test [1]; 2.6 µM in test [2]; 1.7 µM in test [3]; 4 µM in test [6]; 0.8 µM in test [4].

With `C=C1C(=O)[C@]23[C@H](O)[C@H]1C[C@H](O)[C@H]2[C@]12CCCC(C)(C)[C@H]1C[C@H]3O[C@@H]2OCCCn1cc(CN2C(=O)S/C(=C\c3ccc([N+](=O)[O-])cc3)C2=O)nn1`, the IC50 in test [1] came to 13.2 µM; in test [2], 4.9 µM; in test [3], 27.8 µM; in test [4], 5.4 µM.

For `C=C1C(=O)[C@]23[C@H](O)[C@H]1C[C@H](O)[C@H]2[C@]12CCCC(C)(C)[C@H]1C[C@H]3O[C@@H]2OCCCn1cc(CN2C(=O)SC(=C(C)C)C2=O)nn1`, the concentration for half-maximal inhibition (IC50) in test [5] worked out at 5.7 µM; in test [1], 6.2 µM; in test [2] it was 4.3 µM; in test [3] it was 2.5 µM; in test [6], 9.2 µM; in test [4], 4.9 µM.

For the compound `C=C1C(=O)[C@]23[C@H](O)[C@H]1C[C@H](O)[C@H]2[C@]12CCCC(C)(C)[C@H]1C[C@H]3OC2OCCCN=[N+]=[N-]` (single isomer, unassigned), the IC50 stood at 12 µM in test [5]; 10 µM in test [1]; 7.6 µM in test [2]; 9.7 µM in test [3]; 13.6 µM in test [6]; 10.1 µM in test [4].

On to `C=C1C(=O)[C@]23[C@H](O)[C@H]1C[C@H](O)[C@H]2[C@]12CCCC(C)(C)[C@H]1C[C@H]3O[C@@H]2OCCCn1cc(CN2C(=O)S/C(=C\c3ccccc3Cl)C2=O)nn1`, for which the IC50 was 18.4 µM in test [1], 7.9 µM in test [2], 25.9 µM in test [3] and 2.6 µM in test [4].

Take `C=C1C(=O)[C@]23[C@H](O)[C@H]1C[C@H](O)[C@H]2[C@]12CCCC(C)(C)[C@H]1C[C@H]3O[C@@H]2OCCCn1cc(CN2C(=O)S/C(=C\c3ccc(OC)cc3)C2=O)nn1`: the IC50 in test [1] was 11.5 µM; in test [2], 8.9 µM; in test [3], 17.3 µM; in test [4], 9.3 µM.

For `C=C1C(=O)[C@]23[C@H](O)[C@H]1C[C@H](O)[C@H]2[C@]12CCCC(C)(C)[C@H]1C[C@H]3O[C@@H]2OCCCn1cc(CN2C(=O)S/C(=C\c3ccc(F)c(F)c3)C2=O)nn1`, the IC50 worked out at 16.1 µM in test [1], 4.8 µM in test [2], 35 µM in test [3] and 3.3 µM in test [4].

In the case of `C=C1C(=O)[C@]23[C@H](O)[C@H]1C[C@H](O)[C@H]2[C@]12CCCC(C)(C)[C@H]1C[C@H]3O[C@@H]2OCCCn1cc(CSc2nncs2)nn1`, the IC50 in test [1] came to 9.6 µM; in test [2], 15.2 µM; in test [3] it was 5.2 µM; in test [4], 5.6 µM.

In the case of `C=C1C(=O)[C@]23[C@H](O)[C@H]1C[C@H](O)[C@H]2[C@]12CCCC(C)(C)[C@H]1C[C@H]3O[C@@H]2OCCCn1cc(CSc2nnnn2C)nn1`, the IC50 in test [1] came out at 11.6 µM; in test [2], 13.6 µM; in test [3], 8.9 µM; in test [4], 8.6 µM.

For the compound `C=C1C(=O)[C@]23[C@H](O)[C@H]1CC[C@H]2[C@@]12CO[C@]3(O)[C@@H](O)[C@@H]1C(C)(C)CC[C@@H]2O` [ORIDONIN], the IC50 in test [5] was determined as 30.1 µM; in test [1] it was 43.9 µM; in test [2] it was 64.3 µM; in test [3], 34.3 µM; in test [6], 25.4 µM; in test [4], 33.6 µM.

Regarding `C=C1C(=O)[C@]23[C@H](O)[C@H]1C[C@H](O)[C@H]2[C@]12CCCC(C)(C)[C@H]1C[C@H]3O[C@@H]2OCCCn1cc(CN2C(=O)S/C(=C\c3ccccc3)C2=O)nn1`, the IC50 in test [1] stood at 13.2 µM; in test [2], 6.6 µM; in test [3], 20 µM; in test [4], 4.9 µM.

Regarding `C=C1C(=O)[C@]23[C@H](O)[C@H]1C[C@H](O)[C@H]2[C@]12CCCC(C)(C)[C@H]1C[C@H]3O[C@@H]2OCCCn1cc(CN2C(=O)S/C(=C\c3ccc(F)cc3)C2=O)nn1`, the IC50 is 13.4 µM in test [1], 15.7 µM in test [2], 29.7 µM in test [3] and 4.7 µM in test [4].

For the compound `C=C1C(=O)[C@]23[C@H](O)[C@H]1C[C@H](O)[C@H]2[C@]12CCCC(C)(C)[C@H]1C[C@H]3O[C@@H]2OCCCn1cc(CSc2ncccn2)nn1`, the IC50 was 5.9 µM in test [1], 14.9 µM in test [2], 5.2 µM in test [3] and 5 µM in test [4].

For the compound `C=C1C(=O)[C@]23[C@H](O)[C@H]1C[C@H](O)[C@H]2[C@]12CCCC(C)(C)[C@H]1C[C@H]3O[C@@H]2OCCCn1cc(CN2C(=O)CSC2=O)nn1`, the IC50 in test [1] is 5.8 µM; in test [2], 9.5 µM; in test [3], over 50 µM; in test [4], 35 µM.

`C=C1C(=O)[C@]23[C@H](O)[C@H]1C[C@H](O)[C@H]2[C@]12CCCC(C)(C)[C@H]1C[C@H]3O[C@@H]2OCCCn1cc(CSc2nnc(C)s2)nn1`: the IC50 in test [1] was found to be 7.7 µM; in test [2], 14.6 µM; in test [3] it was 4.5 µM; in test [4], 6.2 µM.

As to `C=C1C(=O)[C@]23[C@H](O)[C@H]1C[C@H](O)[C@H]2[C@]12CCCC(C)(C)[C@H]1C[C@H]3O[C@@H]2OCCCn1cc(CN2C(=O)S/C(=C/CC)C2=O)nn1`, the half-maximal inhibitory concentration (IC50) was determined as 3.4 µM in test [5]; 8.9 µM in test [1]; 4.1 µM in test [2]; 2.1 µM in test [3]; 7.8 µM in test [6]; 2.5 µM in test [4].
